The source of these data is US11225484B2, “Substituted octahydropyrrolo[3,4-b]pyrroles as antagonists of the muscarinic acetylcholine receptor M4” (Vanderbilt University, priority 2017, dated 2022).

One assay has as its target T1, Human M4 (Homo sapiens, UniProt P08173).
T1 construct: expressed in transfected cells; host or cells: CHO-K1 (ATCC), co-transfected with chimeric G protein Gqi5
T1 sequence (P08173 1-479): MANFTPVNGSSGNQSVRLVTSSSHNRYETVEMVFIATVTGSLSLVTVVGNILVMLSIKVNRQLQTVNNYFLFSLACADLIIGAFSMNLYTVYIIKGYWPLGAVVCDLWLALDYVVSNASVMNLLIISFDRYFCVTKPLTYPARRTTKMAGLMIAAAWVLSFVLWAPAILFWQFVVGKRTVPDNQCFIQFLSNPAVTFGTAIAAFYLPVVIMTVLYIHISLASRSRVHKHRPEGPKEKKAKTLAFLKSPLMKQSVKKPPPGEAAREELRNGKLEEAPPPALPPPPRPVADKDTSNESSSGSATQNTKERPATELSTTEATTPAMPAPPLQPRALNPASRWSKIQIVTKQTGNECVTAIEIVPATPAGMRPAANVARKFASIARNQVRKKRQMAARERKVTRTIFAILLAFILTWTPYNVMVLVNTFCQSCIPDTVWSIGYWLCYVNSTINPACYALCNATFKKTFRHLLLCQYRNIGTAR
The experiment in a line: mAChR M4 cell-based functional assay (calcium flux, human M4/Gqi5/CHO cells). The note with it: for remaining activity at 30 µM: CHO, % ACh maximum at 30 μM, read-out: Emin (%) human M4; for IC50: antagonist mode, decrease of the response to an EC80 concentration of acetylcholine, CHO-K1 cells with Gqi5. As for the experimental part:
(§1) Human or rat M4 cDNA, along with the chimeric G protein Gqi5, were transfected into Chinese hamster ovary (CHO-K1) cells purchased from the American Type Culture Collection using Lipofectamine2000. M4/Gqi5/CHO cells were grown in Ham's F-12 medium containing 10% heat-inactivated fetal bovine serum (FBS), 20 mM HEPES, 500 μg/mL G418 sulfate, and 200 μg/mL Hygromycin B.
(§2) For high throughput measurement of agonist-evoked increases in intracellular calcium, CHO-K1 cells stably expressing muscarinic receptors were plated in growth medium lacking G418 and hygromycin at 15,000 cells/20 μL/well in Greiner 384-well black-walled, tissue culture (TC)-treated, clear-bottom plates (VWR). Cells were incubated overnight at 37° C. and 5% CO2. The next day, cells were washed using an ELX 405 (BioTek) with assay buffer; the final volume was then aspirated to 20 μL. Next, 20 μL of a 2.3 μM stock of Fluo-4/acetoxymethyl ester (Invitrogen, Carlsbad, Calif.), prepared as a 2.3 mM stock in DMSO and mixed in a 1:1 ratio with 10% (w/v) Pluronic F-127 and diluted in assay buffer, was added to the wells and the cell plates were incubated for 50 min at 37° C. and 5% CO2. Dye was removed by washing with the ELX 405 and the final volume was aspirated to 20 μL. Compound master plates were formatted in a 10 point concentration-response curve (CRC) format (1:3 dilutions) in 100% DMSO with a starting concentration of 10 or 1 mM using a BRAVO liquid handler (Agilent). Test compound CRCs were then transferred to daughter plates (240 nL) using the Echo acoustic plate reformatter (Labcyte, Sunnyvale, Calif.) and then diluted into assay buffer (40 μL) to a 2× stock using a Thermo Fisher Combi (Thermo Fisher Scientific, Waltham, Mass.).
(§3) Calcium flux was measured using the Functional Drug Screening System (FDSS) 6000 or 7000 (Hamamatsu Corporation, Tokyo, Japan) as an increase in the fluorescent static ratio. Compounds were applied to cells (20 μL, 2×) using the automated system of the FDSS at 2 seconds into the protocol and the data were collected at 1 Hz. At 143 s, 10 μL of an EC20 concentration of the muscarinic receptor agonist acetylcholine was added (5×), followed by the addition of 12 μL of an EC80 concentration of acetylcholine at the 268 s time point (5×). Agonist activity was analyzed as a concentration-dependent increase in calcium mobilization upon compound addition. Positive allosteric modulator activity was analyzed as a concentration-dependent increase in the EC20 acetylcholine response. Antagonist activity was analyzed as a concentration-dependent decrease in the EC80 acetylcholine response for the purposes of the tables herein, an IC50 (inhibitory concentration 50) was calculated as a concentration-dependent decrease of the response elicited by an EC80 concentration of acetylcholine, Concentration-response curves were generated using a four-parameter logistical equation in XLFit curve fitting software (IDBS, Bridgewater, N.J.) for Excel (Microsoft, Redmond, Wash.) or Prism (GraphPad Software, Inc., San Diego, Calif.) or the Dotmatics software platform (Dotmatics, Bishop's Stortford, UK).
(§4) Compounds were synthesized as described above. Activity (IC50 and Emin) was determined in the mAChR M4 cell-based functional assay as described above and the data are shown in Table 2. The compound number corresponds to the compound numbers used in Examples 1-3.

Another assay addresses T2, Rat M4 (Rattus norvegicus, UniProt P08485).
T2 construct: expressed in transfected cells; host or cells: CHO-K1 (ATCC), co-transfected with chimeric G protein Gqi5
T2 sequence (P08485 1-478): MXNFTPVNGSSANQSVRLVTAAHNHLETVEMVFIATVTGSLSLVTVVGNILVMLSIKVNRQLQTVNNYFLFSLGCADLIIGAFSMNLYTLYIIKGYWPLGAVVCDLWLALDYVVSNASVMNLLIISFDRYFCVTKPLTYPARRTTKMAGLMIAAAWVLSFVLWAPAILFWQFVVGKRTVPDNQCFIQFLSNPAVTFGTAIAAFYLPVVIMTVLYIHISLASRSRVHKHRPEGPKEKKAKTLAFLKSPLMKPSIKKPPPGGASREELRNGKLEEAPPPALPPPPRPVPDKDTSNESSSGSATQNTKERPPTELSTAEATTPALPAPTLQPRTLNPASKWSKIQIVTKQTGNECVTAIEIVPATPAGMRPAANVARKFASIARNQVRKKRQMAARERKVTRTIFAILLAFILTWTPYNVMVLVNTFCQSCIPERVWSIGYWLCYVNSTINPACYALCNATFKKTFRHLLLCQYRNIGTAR
The experiment in a line: mAChR M4 cell-based functional assay (calcium flux, rat M4/Gqi5/CHO cells). Conditions: for remaining activity at 30 µM: CHO, % ACh maximum at 30 μM, read-out: Emin (%) rat M4; for IC50: antagonist mode, decrease of the response to an EC80 concentration of acetylcholine, CHO-K1 cells with Gqi5. As for the experimental part:
as §1, §2, §3, §4
(In general: Calcium assays in cells follow changes in intracellular calcium, usually with a dye or a luminescent sensor.)

The test system of assay [1] is catalepsy induced by the DA receptor antagonist haloperidol. The experiment in a line: haloperidol-induced catalepsy. In kind it is in vivo, mice. From the text:
Furthermore, haloperidol-induced catalepsy, a model of parkinsonian motor disability, is reduced in M4 knockout mice as compared to wild-type controls. […] The reversal by scopolamine was uncommonly robust and more pronounced than we observe with agents targeting a number of other targets being evaluated for potential antiparkinsonian effects, including metabotropic glutamate (mGlu) receptors mGlu4 or mGlu5, A2A adenosine receptors, and NMDA receptors. […] Taken together with the extensive studies of M4 modulation of basal ganglia and motor function, these studies provide compelling evidence that M4 is the dominant mAChR subtype involved in the antiparkinsonian effects of non-selective mAChR antagonists and provide support for discovery and development of selective M4 antagonists for treatment of neurodegenerative disease such as PD, dystonia, tardive dyskinesia and other movement disorders.

In a further assay the test system is locomotor activity. The note with it: M4 knockout mice, but not the other four mAChR subtypes; cited from earlier work.

The term IC50 denotes the midpoint of a concentration-inhibition curve. Turning to `Cc1nn(C)cc1-c1ccc(N2CCC3CN(CC45CC6CC(CC(C6)C4)C5)CC32)nn1` (stereo not drawn) [Compound 16, 5-(adamantan-1-ylmethyl)-1-(6-(1,3-dimethyl-1H-pyrazol-4-yl)pyridazin-3-yl)octahydropyrrolo[3,4-b]pyrrole], on Human M4, the remaining activity at 30 µM was 4.02% and the IC50 amounted to 191 nM. In addition, at Rat M4, the remaining activity at 30 µM was determined as 4.09% and the IC50 amounted to 0.753 µM.
Consider `CC/C=C\CCCN1CC2CCN(c3ccc(-c4c(C)cnn4C)nn3)C2C1` (stereo not drawn) [Compound 12, (Z)-1-(6-(1,4-dimethyl-1H-pyrazol-5-yl)pyridazin-3-yl)-5-(hept-4-en-1-yl)octahydropyrrolo[3,4-b]pyrrole], for which the remaining activity at 30 µM at Human M4 was 15.1%; at Rat M4, 45.2%. For the same compound, the IC50 is over 10000 nM on Human M4 and over 10 µM at Rat M4.
For `Fc1ccc(-c2ccc(N3CCC4CN(CC56CC7CC(CC(C7)C5)C6)CC43)nn2)c(Cl)c1` (stereo not drawn) [Compound 18, 5-(adamantan-1-ylmethyl)-1-(6-(2-chloro-4-fluorophenyl)pyridazin-3-yl)octahydropyrrolo[3,4-b]pyrrole], in that order: 12%, 36.4%, over 10000 nM and over 10 µM.
As for `CN1[C@@H]2C[C@@H](OC(=O)[C@H](CO)c3ccccc3)C[C@H]1[C@@H]1O[C@@H]12` [scopolamine], the “reduction of haloperidol-induced catalepsy” value in assay [1] (M4 KO mice) was “ineffective in reducing catalepsy”. Moreover, the “reversal of haloperidol-induced catalepsy” value in assay [1] (WT mice) is listed as “completely reversed”. For the same compound, in the assay with locomotor activity, the locomotor-activating effects result was “dramatically reduced”.
Turning to `Cc1cnn(C)c1-c1ccc(N2CCC3CN(CC4CC5C=CC4C5)CC32)nn1` (stereo not drawn) [Compound 3, 5-(bicyclo[2.2.1]hept-5-en-2-ylmethyl)-1-(6-(1,4-dimethyl-1H-pyrazol-5-yl)pyridazin-3-yl)octahydropyrrolo[3,4-b]pyrrole], the remaining activity at 30 µM on Human M4 came out at 4.28%; on Rat M4, 16.8%. The figures for the IC50 on Human M4 and on Rat M4 were 800 nM and 3.57 µM, respectively.
The corresponding values for `CCCCCCN1CC2CCN(c3ccc(-c4c(C)cnn4C)nn3)C2C1` (stereo not drawn) [Compound 13, 1-(6-(1,4-dimethyl-1H-pyrazol-5-yl)pyridazin-3-yl)-5-hexyloctahydropyrrolo[3,4-b]pyrrole] are 7.23%, 28.4%, 2150 nM and over 10 µM.
For `Cc1cnn(C)c1-c1ccc(N2CCC3CN(CCCc4ccccc4)CC32)nn1` (stereo not drawn) [Compound 7, 1-(6-(1,4-dimethyl-1H-pyrazol-5-yl)pyridazin-3-yl)-5-(3-phenylpropyl)octahydropyrrolo[3,4-b]pyrrole], in that order: 6.12%, 26.2%, 1430 nM and over 10 µM.
The corresponding values for `Cc1cnn(C)c1-c1ccc(N2CCC3CN(CCCC(C)(C)C)CC32)nn1` (stereo not drawn) [Compound 2, 1-(6-(1,4-Dimethyl-1H-pyrazol-5-yl)pyridazin-3-yl)-5-(4,4-dimethylpentyl)octahydropyrrolo[3,4-b]pyrrole] are 3.83%, 6.85%, 647 nM and 1.5 µM.
On to `Fc1ccc(Cl)c(-c2ccc(N3CCC4CN(CC56CC7CC(CC(C7)C5)C6)CC43)nn2)c1` (stereo not drawn) [Compound 17, 5-(adamantan-1-ylmethyl)-1-(6-(2-chloro-5-fluorophenyl)pyridazin-3-yl)octahydropyrrolo[3,4-b]pyrrole], for which the remaining activity at 30 µM on Human M4 is 20.2%; on Rat M4, 49.1%. In addition, the IC50 on Human M4 was over 10000 nM; on Rat M4, over 10 µM.
Regarding `Cc1cnn(C)c1-c1ccc(N2CCC3CN(CC4CCOCC4)CC32)nn1` (stereo not drawn) [Compound 22, 1-(6-(1,4-dimethyl-1H-pyrazol-5-yl)pyridazin-3-yl)-5-((tetrahydro-2H-pyran-4-yl)methyl)octahydropyrrolo[3,4-b]pyrrole], at Human M4, the remaining activity at 30 µM was 36.1% and the IC50 was over 10000 nM. Also, on Rat M4, the remaining activity at 30 µM stood at 69.7% and the IC50 is over 10 µM.
